Assay results as given in article PMC7756341, “Liposomal FRET Assay Identifies Potent Drug‐Like Inhibitors of the Ceramide Transport Protein (CERT)” (Chemistry (Weinheim an Der Bergstrasse, Germany), 2020).

Target: T1, CERT (Homo sapiens, UniProt Q9Y5P4)
T1 construct: made in house; host or cells: E. coli BL21 (DE3), pET-28a(+)
T1 sequence (Q9Y5P4 1-598 isoform Q9Y5P4-2): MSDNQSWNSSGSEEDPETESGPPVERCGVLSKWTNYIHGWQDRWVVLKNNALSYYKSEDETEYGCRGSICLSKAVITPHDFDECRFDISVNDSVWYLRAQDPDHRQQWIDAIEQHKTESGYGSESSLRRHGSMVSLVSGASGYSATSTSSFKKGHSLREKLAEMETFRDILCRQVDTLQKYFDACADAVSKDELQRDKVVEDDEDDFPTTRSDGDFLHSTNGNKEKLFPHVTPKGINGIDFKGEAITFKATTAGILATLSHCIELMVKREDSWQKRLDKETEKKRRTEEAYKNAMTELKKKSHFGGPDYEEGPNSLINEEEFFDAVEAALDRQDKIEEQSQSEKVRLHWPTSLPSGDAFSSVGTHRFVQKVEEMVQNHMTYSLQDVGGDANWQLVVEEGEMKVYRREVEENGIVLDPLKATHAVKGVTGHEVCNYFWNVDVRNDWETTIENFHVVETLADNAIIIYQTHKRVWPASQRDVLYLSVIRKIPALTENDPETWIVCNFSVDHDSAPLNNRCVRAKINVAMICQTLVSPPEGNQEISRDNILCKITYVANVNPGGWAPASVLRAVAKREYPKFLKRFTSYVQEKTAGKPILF
Assay: NR-ceramide fluorescence competition assay
Type: binding
Conditions: 1 μM Nile red ceramide
Text: Having the identified hits from CERT-transfer assay, we were interested in further understanding the relationship between the CERT-transfer inhibitory activity and CERT-binding affinity. With this goal in mind, we have developed a homogenous competitive assay based on the binding of fluorescently-labeled ceramide to CERT-protein (Fig S6). It’s well known that Nile Red is […]
than in hydrophilic one. Based on this knowledge, we have designed a fluorescently-labeled probe in which the Nile Red-tag was incorporated into the ceramide fatty acid moiety. The NR-ceramide […]
excellent signal-to-noise ratio (28-fold, Fig S7.A). Equilibration takes ~1h of incubation at 30°C.
Furthermore, this assay is a simple mix-and read format and uses only low amounts of fluorophore (1µM) and CERT-protein (12.5µg/assay).
The assay was performed in non-binding black-bottom 96-well microplate (Greiner Bio-One). To each well was added 1µL HPA12 (final concentration 2.5µM) or DMSO, followed by 98 µL of the CERT aliquot (12.5µg/well). After the mixture was incubated for 40 min at 30°C, 1µL NR-ceramide (final concentration 1µM) was added. Controls were triplicates of 10mM Tris.HCl buffer (pH 7.4, 250 mM sucrose) with 2µL DMSO, CERT aliquot (12.5µg/well) with 2µL DMSO, and 1µL NR-ceramide (final concentration 1µM) in 10mM Tris.HCl buffer (pH 7.4, 250 mM sucrose) with 1µL DMSO. The plate was then sealed with transparent Thermowell seal tape and placed in the microplate reader (LABTECH) at 30°C with shaking. The fluorescence was measured from the top over 80min (number of cycles 35, delay 70 sec) with excitation filter 540 nm and emission filter 640 nm. The competitive CERT-binding activity was calculated using the formula: Ix = I(À2-Y)/I0(À1-X), where À1 is the average of the florescence of the control of NR-ceramide in Tris.HCl buffer, X is the average of the fluorescence of the buffer alone, À2 is the fluorescence average of the assay mixture, Y is the fluorescence average of the CERT aliquot with inhibitor/DMSO (Fig […]
It is however lower than the differentiation in the transfer assay (Fig S8B).
3.2 High throughput screening for CERT-activity and Data analysis
In order to validate the performance of developed assay in high-throughput screening format, the hits from ‘confirmed-hit group’ (45 hits) were screened for their competitive CERT-binding activity. The assay was performed as mentioned in the previous sub-section 3.1. Briefly, 1µL tested compound (final concentration 1µM, 2.5µM, 5µM, 10µM) or DMSO for control, and 98 µL CERT stock solution were sequentially added into a non-binding 96-well microplate. The plate was sealed and incubated at 30°C for 40 min, before 1µL NR-ceramide (final concentration 1µM) was added.
Controls per plate were triplicates of 10mM Tris.HCl buffer (pH 7.4, 250 mM sucrose) with 2µL DMSO, CERT aliquot (12.5µg/well) with 2µL DMSO, 1µL NR-ceramide (final concentration 1µM) in 10mM Tris.HCl buffer (pH 7.4, 250 mM sucrose), and HPA12 as a reference inhibitor (final concentration of 1µM, and 2.5µM, 5µM). The plate was sealed with transparent Thermowell seal tape and the assay was allowed to proceed as described above using excitation filter 540 nm and emission filter 640 nm. The competitive CERT-binding activity was calculated using the formula: Ix = I(À2-Y)/I0(À1-X), where À1 is the average of the florescence of the control 1µL NR-ceramide in Tris.HCl buffer, X is the average of the fluorescence of the buffer alone, À2 is the average of the fluorescence of assay mixture treated with tested compound or DMSO, Y is the average of the fluorescence of CERT aliquot with inhibitor/DMSO.

CCCCCCCCCCCC(=O)NC(CO)CC(O)c1ccccc1 (single isomer, unassigned) [R,R diastereomer of HPA‐12, N-(3Hydroxy-1-hydroxymethyl-3-phenylpropyl)-dodecamide]
activity in the NR ceramide competition assay: much less pronounced
